# Results reported in patent US20250326772A1, “MRGPRX2 ANTAGONISTS, PHARMACEUTICAL COMPOSITION INCLUDING MRGPRX2 ANTAGONIST, AND METHOD OF TREATING MRGPRX2-MEDIATED DISEASE OR DISORDER” (KYORIN PHARMACEUTICAL CO., LTD., priority 2024, published 2025).
# Target: T1, MRGPRX2 (Homo sapiens, UniProt Q96LB1)
# T1 sequence (Q96LB1 1-330): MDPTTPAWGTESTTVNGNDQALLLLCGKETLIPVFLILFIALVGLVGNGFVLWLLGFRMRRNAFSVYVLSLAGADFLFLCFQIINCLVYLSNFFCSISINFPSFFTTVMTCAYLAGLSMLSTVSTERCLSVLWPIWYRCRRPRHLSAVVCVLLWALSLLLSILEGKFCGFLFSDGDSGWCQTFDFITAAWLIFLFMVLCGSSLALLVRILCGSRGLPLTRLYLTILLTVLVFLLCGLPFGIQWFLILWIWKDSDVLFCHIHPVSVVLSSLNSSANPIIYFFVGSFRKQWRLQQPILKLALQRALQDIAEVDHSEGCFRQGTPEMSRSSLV
# Experiment: MRGPRX2 reporter cell assay (NFAT-RE luciferase, Substance P stimulation)
# Format: cell-based
# Conditions: U2OS cells stably transfected with MRGPRX2 and NFAT-RE luciferase reporter; Substance P at EC80
# Outline: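 U2OS cells stably expressing MRGPRX2 and an NFAT-RE luc2P reporter, pre-incubated 30 min at 37° C with compound (0.5% DMSO), then stimulated with Substance P at EC80 for 6 h. Luminescence after ONE-GLO; percent inhibition fitted by four-parameter logistic to IC50.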
row,Structure (SMILES),IC50 [nM]
1,CO[C@@H]1COc2c(-c3[nH]c4ncccc4c3-c3cn(C)nc3OC(F)F)c(C(F)F)nn2C1 [EX. 531],2.3

# Same assay, conditions: U2OS cells stably transfected with MRGPRX2 and NFAT-RE luciferase reporter; Substance P at EC80; class symbols
row,Structure (SMILES),IC50 [nM]
1,[2H]C([2H])([2H])Oc1ccc(C#N)c(-c2c(-c3cn(C)nc3C(F)F)[nH]c3ncccc23)c1 [EX. 381],< 10
2,"Cc1nn2c(c1-c1[nH]c3ncccc3c1-c1cn(C)nc1OC(F)F)OC[C@@H](O)C2 [EX. 480, (S)-3-(3-(3-(difluoromethoxy)-1-methyl-1H-pyrazol-4-yl)-1 H-pyrrolo[2,3-b]pyridin-2-yl)-2-methyl-6,7-dihydro-5H-pyrazolo[5,1-b] [1,3]oxazin-6-ol]",< 10
3,Cn1cc(-c2c(-c3c(C(F)F)nn4c3OC[C@@H](NS(=O)(=O)CCCO)C4)[nH]c3ncccc23)c(OC(F)F)n1 [EX. 581],< 10
4,C[C@@]1(N)COc2c(-c3[nH]c4ncccc4c3-c3cccnc3OC(F)F)c(C(F)F)nn2C1 [EX. 490],< 10
5,COC(=O)CO[C@@H]1COc2c(-c3[nH]c4ncccc4c3-c3cn(C)nc3OC(F)F)c(C(F)F)nn2C1 [EX. 530],< 10
6,[2H]C([2H])([2H])Oc1ccc(C#N)c(-c2c(-c3c(C(F)F)nn4c3OCC(O)C4)[nH]c3ncccc23)c1 (centres unmarked) [EX. 202],< 10
7,FC(F)Oc1ncccc1-c1c(-c2c(C(F)F)nn3c2OCC3)[nH]c2ncccc12 [EX. 442],< 10
8,CCn1cc(-c2[nH]c3ncccc3c2-c2ccccc2C#N)c(C(F)(F)F)n1 [EX. 147],< 10
9,Cn1cc(-c2c(-c3c(C(F)F)nn4c3OCC4)[nH]c3ncccc23)c(OC(F)F)n1 [EX. 432],< 10
10,Cn1cc(-c2c(-c3c(C(F)F)nn4c3OC[C@@H](NC(=O)N3CC(O)C3)C4)[nH]c3ncccc23)c(OC(F)F)n1 [EX. 569],< 10
11,C[C@H](O)CC(=O)N[C@@H]1COc2c(-c3[nH]c4ncccc4c3-c3cn(C)nc3OC(F)F)c(C(F)F)nn2C1 [EX. 556],< 10
12,[2H]c1cnc2[nH]c(-c3c(C)nn4c3OCCC4)c(-c3cc(OC([2H])([2H])[2H])ccc3C#N)c2c1 [EX. 216],< 10
13,COc1ccsc1-c1[nH]c2ncccc2c1-c1ccccc1C#N [EX. 53],< 10
14,COc1ccc(C#N)c(-c2c(-c3c[nH]nc3C(F)(F)F)[nH]c3ncccc23)c1 [EX. 80],< 10
15,"Cc1nn2c(c1-c1[nH]c3ncccc3c1-c1cn(C)nc1OC(F)F)OCCC2 [EX. 421, 3-(3-(3-(difluoromethoxy)-1-methyl-1H-pyrazol-4-yl)-1H-pyrrolo[2,3-b]pyridin-2-yl)-2-methyl-6,7-dihydro-5H-pyrazolo[5,1-b] [1,3]oxazine]",< 10
16,N#Cc1ncccc1-c1c(-c2c(C(F)F)nn3c2OC[C@@H](O)C3)[nH]c2ncccc12 [EX. 470],< 10
17,[2H]C([2H])([2H])Oc1ccc(F)cc1-c1[nH]c2ncccc2c1-c1ccccc1C#N [EX. 346],< 10
18,COc1ccccc1-c1[nH]c2ncccc2c1-c1ccccc1C#N [EX. 307],< 10
19,COCCO[C@@H]1COc2c(-c3[nH]c4ncccc4c3-c3cn(C)nc3OC(F)F)c(C(F)F)nn2C1 [EX. 533],< 10
20,COc1ccc(C#N)c(-c2c(-c3c(C)nn4cc(F)cnc34)[nH]c3ncccc23)c1 [EX. 182],< 10
21,[2H]C([2H])([2H])Oc1ccc(C#N)c(-c2c(-c3c(C(F)F)nn4c3OC[C@H](O)C4)[nH]c3ncccc23)c1 [EX. 370],< 10

row,Structure (SMILES),IC50 [nM]
1,O[C@@H]1COc2c(-c3[nH]c4ncccc4c3-c3cccnc3OC(F)F)c(C3CC3)nn2C1 [EX. 455],< 10
2,Cc1ccc(F)c(-c2c(-c3cc(F)ccc3O)[nH]c3ncccc23)c1 [EX. 344],< 10
3,Cn1cc(-c2c(-c3c(C(F)F)nn4c3OC[C@@H](NC(=O)[C@@H]3C[C@@H]3F)C4)[nH]c3ncccc23)c(OC(F)F)n1 [EX. 549],< 10
4,Cn1cc(-c2c(-c3c(C(F)F)nn4c3OC[C@@H](NC(=O)C3(O)CC3)C4)[nH]c3ncccc23)c(OC(F)F)n1 [EX. 589],< 10
5,Cc1cc(-c2c(-c3c(C(F)F)nn4c3OC[C@@H](NS(C)(=O)=O)C4)[nH]c3ncccc23)c(C#N)s1 [EX. 525],< 10
6,Cc1cc(-c2c(-c3c(C(F)F)nn4c3OCCCC4)[nH]c3ncccc23)c(C#N)s1 [EX. 452],< 10
7,O[C@@H]1COc2c(-c3[nH]c4ncccc4c3-c3ccccc3)c(C(F)F)nn2C1 [EX. 465],< 10
8,C[C@H](O)C(=O)N[C@@H]1COc2c(-c3[nH]c4ncccc4c3-c3cn(C)nc3OC(F)F)c(C(F)F)nn2C1 [EX. 561],< 10
9,[2H]C([2H])([2H])Oc1ccc(C#N)c(-c2c(-c3c(CF)nn4c3OCCC4)[nH]c3ncccc23)c1 [EX. 235],< 10
10,Cc1cc(-c2c(-c3c(C(F)F)nn4c3OC[C@@H](F)C4)[nH]c3ncccc23)c(Cl)s1 [EX. 436],< 10
11,CO[C@@H]1COc2c(-c3[nH]c4ncccc4c3-c3cn(C)nc3OC(F)F)c(C(F)F)nn2C1 [EX. 531],< 10
12,COc1ccc(C#N)c(-c2c(-c3c(C)nn4c3OCC(NC(=O)OC(C)(C)C)C4)[nH]c3ncccc23)c1 (centres unmarked) [EX. 256],< 10
13,Cn1cc(-c2c(-c3c(C(F)F)nn4c3OC[C@@H](NC(=O)C(C)(C)O)C4)[nH]c3ncccc23)c(OC(F)F)n1 [EX. 587],< 10
14,Cc1cc(-c2c(-c3c(C)nn4c3OC[C@@H](OCCO)C4)[nH]c3ncccc23)c(C#N)s1 [EX. 504],< 10
15,CC(C)OC(=O)N[C@@H]1COc2c(-c3[nH]c4ncccc4c3-c3cn(C)nc3OC(F)F)c(C(F)F)nn2C1 [EX. 575],< 10
16,C[C@@H](O)COC(=O)N[C@@H]1COc2c(-c3[nH]c4ncccc4c3-c3cn(C)nc3OC(F)F)c(C(F)F)nn2C1 [EX. 568],< 10
17,COc1ccccc1-c1[nH]c2ncccc2c1-c1cc(C)ccc1C#N [EX. 316],< 10
18,COc1ccc(F)cc1-c1[nH]c2ncccc2c1-c1cn(C)nc1C(F)F [EX. 292],100 to 1000
19,COc1ccc(C#N)c(-c2c(-c3c(C(F)F)nn4c3OC[C@@H](NC(C)=O)C4)[nH]c3ncccc23)c1 [EX. 364],< 10
20,Cn1cc(-c2c(-c3c(C(F)F)nn4c3OC[C@@H](N3CCOC3=O)C4)[nH]c3ncccc23)c(OC(F)F)n1 [EX. 579],< 10
21,Cn1cc(-c2c(-c3c(C4CC4)nn4c3OCCC4)[nH]c3ncccc23)c(OC(F)F)n1 [EX. 420],< 10

# Test system: humanized mice (NOG-hGM-CSF/hIL-3 Tg mice)
# Experiment: Evans blue vascular permeability assay ((R)-Zinc3573-induced, ear)
# Format: in vivo
# Conditions: 10 mg/kg orally, 30 min before intradermal (R)-Zinc3573 3 μM into the ear; Evans blue dye; mean and standard error of mean
# Protocol: Experimental Example 2: Evans Blue Vascular Permeability Assay
# Twenty-five to twenty-six-week-old humanized mice (NOG-hGM-CSF/hIL-3 Tg mice at 17-18 weeks after transplantation of human umbilical cord blood-derived CD34+ cells; Central Institute for Experimental Animals) were anesthetized with isoflurane and injected intravenously with 200 μL of 0.5% Evans blue (cat. no. 056-04061; FUJIFILM Wako Pure Chemical Corporation). Subsequently, vehicle (0.5w/v % Methyl Cellulose) or 10 mg/kg of EX.381 were orally administered. After 30 minutes, animals were anesthetized with isoflurane and injected intradermally with 10 μL of (R)-Zinc3573 ((R)-Zinc; 3 μM, cat. no. SML1699; Sigma-Aldrich) into the right ear or with saline (0.1% DMSO) into the left ear as a control. Fifteen minutes after intradermal injection, animals were sacrificed and the ears were collected in 1.5 mL tubes. Evans blue dye was extracted from the tissue by adding 150 μL of N, N-dimethyl formamide (cat. no. 04096-34; nacalai tesque) for 12 hours at 55° C. […] The plate was read at 620 nm and 740 nm on a plate reader and the Evans blue dye concentration in each sample was determined by a standard curve using corrected absorbance (corrected absorbance=A620-A740). […] Data is expressed as mean and standard error of mean. […]
row,Structure (SMILES),Inhibition % [%]
1,[2H]C([2H])([2H])Oc1ccc(C#N)c(-c2c(-c3cn(C)nc3C(F)F)[nH]c3ncccc23)c1 [EX. 381],76.1 ± 12.1
